Type: physicochemical
Procedure: In order to assess the API release profile from the prototypes in Example 4 to identify a lead formulation, a robust dissolution method was developed. Solubility studies were performed on the API for the selection of dissolution media. For these studies, the active concentration of the dissolution media was 0.1 milligrams per milliliter (mg/mL).
According to USP guidelines (on sink conditions) the solubility needs to be at least 3 times the proposed active concentration. […] The studies next turned to the use of higher hydrocortisone acetate concentrations (0.3 mg/mL).
In order to avoid ionization of the hydrocortisone acetate in the dissolution media, a buffer of pH 5.0 was used in combination with 5% w/v SLS. The final composition of the dissolution media was 5% w/v SLS:acetate buffer (pH 5.0) in 70:30 combination with the pH of the final combination adjusted to 6.8-7.0.

Q: For `CC(=O)OCC(=O)[C@@]1(O)CC[C@H]2[C@@H]3CCC4=CC(=O)CC[C@]4(C)[C@H]3[C@@H](O)C[C@@]21C` [hydrocortisone acetate], which average recovered solubility is on record?
A: Its average recovered solubility is 98.4%.

Q: And the “% Solubility API” value (pH 7.2)?
A: Its value is 4.1%.

— patent publication US12115251B2, “Hydrocortisone acetate suppository formulation for treatment of disease” (Cristcot LLC, priority 2015, dated 2024)
